Test results: patent US12427212B2, “Nectin-4 binding miniproteins, conjugates and uses thereof” (Aktis Oncology, Inc., priority 2023, dated 2025)
Bridges are numbered along the chain shown (N, C = ends). [ ]: non-standard residue; d: D form. The star is where a group is joined. DOTA = O=C(O)CN1CCN(CC(=O)O)CCN(CC(=O)*)CCN(CC(=O)O)CC1; Lys(Me3) = C[N+](C)(C)CCCC[C@H](N)C(=O)O; Cit = NC(=O)NCCC[C@H](N)C(=O)O; PEG4 = NCCOCCOCCOCCOCCC(=O)O

Test: in vivo
Conditions: Sprague Dawley, rat, iv
Method: To begin, double jugular vein-cannulated Sprague Dawley rats were dosed with bolus intravenous injections of miniproteins (0.03-0.3 mg/kg) and FITC-sinistrin. Nine blood collection timepoints were taken from 0-2 h, processed to plasma with K2 EDTA, and were frozen for subsequent bioanalysis. Plasma miniprotein concentrations were measured by LC-MS/MS. To control for inter-animal renal clearance differences, and to compare with glomerular filtration rate (GFR), the miniprotein was co-formulated with a molecular marker of GFR, FITC-sinistrin (FS) (Pill et al., 2005). Plasma FITC-sinistrin was measured fluorometrically. All unknown sample measurements were interpolated against known authentic standards spiked into normal rat plasma to calculate concentration. Finally, non-compartmental analysis was performed to estimate plasma pharmacokinetic parameters.

| Compound | half-life |
| --- | --- |
| CC[C@H](C)[C@@H]1NC(=O)[C@H](Cc2ccc(O)cc2)NC(=O)[C@H](CCC(=O)O)NC(=O)[C@@H]2CSSC[C@@H](C(=O)N[C@@H](CO)C(=O)O)NC(=O)CNC(=O)[C@H](CC(C)C)NC(=O)[C@H](CC(N)=O)NC(=O)[C@H](CC(=O)O)NC(=O)[C@H](CC(C)C)NC(=O)[C@H]([C@@H](C)CC)NC(=O)[C@H](CCC(=O)O)NC(=O)[C@H](CCC(=O)O)NC(=O)[C@H]([C@@H](C)CC)NC(=O)[C@H](CSSC[C@H](NC(=O)CCOCCOCCOCCOCCNC(=O)CN3CCN(CC(=O)O)CCN(CC(=O)O)CCN(CC(=O)O)CC3)C(=O)N[C@@H](CC(=O)O)C(=O)N[C@@H](Cc3ccc(O)cc3)C(=O)N[C@@H](CC(=O)O)C(=O)N[C@@H](CCC(=O)O)C(=O)N[C@@H](CCC(N)=O)C(=O)N[C@@H](Cc3ccccc3)C(=O)N[C@@H](Cc3ccccc3)C(=O)N[C@@H]([C@@H](C)O)C(=O)N[C@@H](C)C(=O)N[C@@H](CC(C)C)C(=O)N[C@@H](C)C(=O)N[C@@H](CCCNC(=N)N)C(=O)N[C@@H](CC(C)C)C(=O)N[C@@H](CCCNC(=N)N)C(=O)NCC(=O)N[C@@H](C)C(=O)N[C@@H](CC(=O)O)C(=O)N[C@@H]([C@@H](C)CC)C(=O)N2)NC(=O)[C@H](CCC(=O)O)NC(=O)CNC(=O)[C@@H]2CCCN2C(=O)[C@H](CC(C)C)NC(=O)[C@H](Cc2ccc(O)cc2)NC(=O)[C@H](CCC(N)=O)NC(=O)[C@H](Cc2ccccc2)NC(=O)[C@H](CO)NC(=O)[C@H](C)NC(=O)[C@H](CCC(N)=O)NC1=O [Compound C246] | 38 min |
| CC[C@H](C)[C@@H]1NC(=O)[C@H](Cc2ccc(O)cc2)NC(=O)[C@H](CCC(=O)O)NC(=O)[C@@H]2CSSC[C@@H](C(=O)N[C@@H](CO)C(=O)O)NC(=O)CNC(=O)[C@H](CC(C)C)NC(=O)[C@H](CC(N)=O)NC(=O)[C@H](CC(=O)O)NC(=O)[C@H](CC(C)C)NC(=O)[C@H]([C@@H](C)CC)NC(=O)[C@H](CCC(=O)O)NC(=O)[C@H](CCC(=O)O)NC(=O)[C@H]([C@@H](C)CC)NC(=O)[C@H](CSSC[C@H](NC(=O)CCOCCOCCOCCOCCNC(=O)CN3CCN(CC(=O)O)CCN(CC(=O)O)CCN(CC(=O)O)CC3)C(=O)N[C@@H](CC(=O)O)C(=O)N[C@@H](Cc3ccc(O)cc3)C(=O)N[C@@H](CC(=O)O)C(=O)N[C@@H](CCC(=O)O)C(=O)N[C@@H](CCC(N)=O)C(=O)N[C@@H](Cc3ccccc3)C(=O)N[C@@H](Cc3ccccc3)C(=O)N[C@@H]([C@@H](C)O)C(=O)N[C@@H](C)C(=O)N[C@@H](CC(C)C)C(=O)N[C@@H](CCCCN)C(=O)N[C@@H](CCCNC(=N)N)C(=O)N[C@@H](CC(C)C)C(=O)N[C@@H](CCCNC(=N)N)C(=O)NCC(=O)N[C@@H](C)C(=O)N[C@@H](CC(=O)O)C(=O)N[C@@H]([C@@H](C)CC)C(=O)N2)NC(=O)[C@H](CCC(=O)O)NC(=O)CNC(=O)[C@@H]2CCCN2C(=O)[C@H](CC(C)C)NC(=O)[C@H](Cc2ccc(O)cc2)NC(=O)[C@H](CCC(N)=O)NC(=O)[C@H](Cc2ccccc2)NC(=O)[C@H](CO)NC(=O)[C@H](C)NC(=O)[C@H](CCC(N)=O)NC1=O [Compound C270] | 28.3 min |
| {DOTA-PEG4}-CDYDEQFFTALA[Cit]LRGGDICEYIQA[Lys(Me3)]FQYLPGLCIEEILDNLGCS-OH (disulfide 1-34, 20-44 (inferred)) [Compound C261] | 28.7 min |
| {DOTA-PEG4}-CEYDEEFFTALARLRGGDICQYIQAKFQYLPGQCIEEILDNLGCS-OH (disulfide 1-34, 20-44) [Compound C242] | 29.7 min |
| {DOTA-PEG4}-CEYDEEFFTALKRLRGGDICYYIQAKFQYLPKLCIEEILDNLGCS-OH (disulfide 1-34, 20-44) [Compound C118] | 19.7 min |
| {DOTA-PEG4}-CEYDEQFFTALARLRGGDICEYIQAKFQYLPGLCIEEILDNLGCS-OH (disulfide 1-34, 20-44) [Compound C219] | 25.4 min |
| {DOTA-PEG4}-CEYDEQFFTALKALRGGDICYYIQASFNYLPDLCIEEILDNLGCS-OH (disulfide 1-34, 20-44 (inferred)) [Compound C114] | 25.5 min |
